Target: A2.1/K^b (UniProt P01901+P04439, D140Y/D185E/D98H/E176V/G131W/I119V/I121R/I166T/N151K/N90K/Q86G/Q94H/R138H/R169H)
Assay type: binding, human-mouse chimeric

Sequence | binding of test peptide to A2.1/K^b (percent specific lysis of EA2/K^b targets by influenza A-specific CTL) | inhibition of binding of the influenza A-derived peptide to A2.1/K^b by Her-2/Neu-derived peptides
ILKEPVHGV [HIV-1 RT 476-484, reference compound] | efficiently bound to A2.1/K^b | –
ILLVVVLGV [Peptide H9] | – | binding at the highest efficiency

Source: patent publication US7402314B2, “In vivo activation of tumor-specific cytotoxic T cells” (The Scripps Research Institute, priority 1995, dated 2008)
